In US6489327B1, “Tryptase inhibitors” (Max-Planck-Gesellschaft zur Fordrungder Wisenschaften, e.V., priority 1998, dated 2002):
Counter-ions that a name gives are not always drawn.

Each compound was assayed against human tryptase (assay: Inhibition of human tryptase: apparent dissociation constant Kiapp, chromogenic substrate tos-Gly-Pro-Arg-pNA). Conditions: apparent dissociation constant in presence of substrate; human tryptase from lung tissue, 50 μg of heparin/ml.
Format: biochemical
Description: The documented pathophysiological effects of mast cell tryptase are brought about directly by the enzymic activity of the protease. Accordingly, they are reduced or blocked by inhibitors which inhibit the enzymatic activity of the tryptase. The equilibrium dissociation constant Ki of the enzyme-inhibitor complex is a suitable measure of the affinity of a reversible inhibitor for the target protease. This Ki value can be determined by measuring the effect of the inhibitor on the tryptase-induced cleavage of a chromogenic peptide-p-nitroanilide substrate or a fluorogenic peptide-aminomethylcoumarin substrate.
The dissociation constants of the tryptase-inhibitor complexes are determined under equilibrium conditions in accordance with the general recommendations of Bieth (Bieth J G, Pathophysiological interpretation of kinetic constants of protease inhibitors, Bull. Europ. Physiopath. Resp. 16:183-195, 1980) and the methods of Sommerhoff et al. (Sommerhoff C P et al., A. Kazal-type inhibitor of human mast cell tryptase: Isolation from the medical leech Hirudo medicinalis, characterization, and sequence analysis, Biol. Chem. Hoppe-Seyler 375: 685-694, 1994).
Human tryptase is prepared in a pure state from lung tissue; the specific activity of the isolated protease, determined by means of titration, is normally 85% of the theoretical value. Constant quantities of tryptase are incubated with increasing quantities of the inhibitors in the presence of 50 μg of heparin/ml for stabilizing the protease. After the equilibrium has been established between the reaction partners, the remaining enzyme activity is determined after adding the peptide-p-nitroanilide substrate tos-Gly-Pro-Arg-pNA, the cleavage of which is monitored at 405 nm over a period of 3 min. Alternatively, the residual enzymic activity can also be determined using fluorogenic substrates. The apparent dissociation constants Kiapp (i.e. in the presence of substrate) are subsequently ascertained by nonlinear regression by fitting the enzyme rates to the general equation for reversible inhibitors (Morrison J F, Kinetics of the reversible inhibition of enzyme-catalysed reactions by tight-binding inhibitors, Biochim. Biophys. Acta 185, 269-286, 1969):
V1/V0=1−{Et+lt+Kiapp−[(Et+lt+Kiapp)^2−4Etlt]^½}/2Et
In this equation, V1 and V0 are the rates in the presence and absence of the inhibitor, respectively, and Et and lt are the concentrations of the tryptase and of the inhibitor.
The apparent dissociation constants which were determined for the compounds according to the invention are given in Table A below, in which the numbers of the compounds correspond to the numbers of the compounds in the examples.

Row | SMILES | Ki [nM]
1 | NCc1cccc(C(=O)NC2CCN(C(=O)c3cccc(C(=O)N4CCC(NC(=O)c5cccc(CN)c5)CC4)n3)CC2)c1 [Compound 11, Pyridine-2,6-dicarbobis[4-(3-aminomethylbenzoylamino)-1-piperidide]] | 30
2 | CC(C)(c1ccc(OCC(=O)NCc2ccc(NC(=N)N)cc2)cc1)c1ccc(OCC(=O)NCc2ccc(NC(=N)N)cc2)cc1 [Compound 31, 2,2-Bis-[4-(4-guanidinylbenzylamino)carbonylmethoxyphenyl]propane dihydroacetate] | 200
3 | NCC1CCC(C(=O)NC2CCN(C(=O)c3cccc(C(=O)N4CCC(NC(=O)C5CCC(CN)CC5)CC4)n3)CC2)CC1 (stereo not drawn) [Compound 15, Pyridine-2,6-dicarbobis[4-(4-aminomethylcyclohexylcarbonylamino)-1-piperidide]] | 3000
4 | NCC1CCC(C(=O)N2CCN(C(=O)Nc3ccc(Oc4ccc(NC(=O)N5CCN(C(=O)C6CCC(CN)CC6)CC5)cc4)cc3)CC2)CC1 (stereo not drawn) [Compound 17, Bis{4-[4-(4-aminomethyl)cyclohexanoylpiperazin-1-yl]-carbonyl}-4,4′-diaminodiphenyl ether dihydrochloride] | 22000
5 | CC(C)(c1ccc(OC(=O)N2CCN(C(=O)NCc3ccc(CN)cc3)CC2)cc1)c1ccc(OC(=O)N2CCN(C(=O)NCc3ccc(CN)cc3)CC2)cc1 [Compound 36, 2,2-Bis-{4-[4-(4-aminomethylbenzylcarbamoyl)-1-piperazinylcarbonyloxy]phenyl}propane dihydrochloride] | 28
6 | NCC1CCC(C(=O)NC2CCN(C(=O)NC3CCC(CC4CCC(NC(=O)N5CCC(NC(=O)C6CCC(CN)CC6)CC5)CC4)CC3)CC2)CC1 (stereo not drawn) [Compound 23, Di{4-[4-(4-aminomethyl)cyclohexanoylamino]piperidin-1-ylcarbamoyl}cyclohexylmethane dihydrochloride] | 800
7 | NCc1cccc(C(=O)N2CCN(C(=O)c3cccc(C(=O)N4CCN(C(=O)c5cccc(CN)c5)CC4)n3)CC2)c1 [Compound 1, Pyridine-2,6-dicarbobis[4-(3-aminomethylbenzoyl)-1-piperazide]] | 3000
8 | CC(C)(c1ccc(OCC(=O)NCC(=O)NCCCCN)cc1)c1ccc(OCC(=O)NCC(=O)NCCCCN)cc1 [Compound 34, 2,2-Bis-[4-(10-amino-3,6-diaza-2,5-dioxodecyloxy)-phenyl]propane dihydrochloride] | 2000
9 | NCc1cccc(C(=O)N2CCN(C(=O)Nc3ccc(Oc4ccc(NC(=O)N5CCN(C(=O)c6cccc(CN)c6)CC5)cc4)cc3)CC2)c1 [Compound 21, Bis{4-[4-(3-aminomethyl)benzoylpiperazin-1-yl]-carbonyl}-4,4′-diaminodiphenyl ether dihydrochloride] | 100
